Entries after “also recorded” stand apart in the source; their conditions may differ.
Key:
[1] = tested on: adult mouse whole brain (MWB) neural progenitor cells; assay: neuronal differentiation of adult mouse whole brain (MWB) neural progenitor cells; type: cell-based; conditions: 4 d cultures
Protocol: Neural stem cell culture, in vitro differentiation, and CaMK inhibitor studies. The hippocampal neural stem/progenitor (NSC) line used in this study (HCN cells) were originally isolated from adult (8-10 wks old) female Fisher 344 rats and have been characterized previously (Gage et al., 1995; Palmer et al., 1997). HCN cells were cultured in DMEM:F12 (Omega Scientific) with N2 supplement (Invitrogen) and basic fibroblast growth factor (20 ng/ml FGF-2) (PeproTech). The mouse whole brain neural stem/progenitors (MWB) were derived from adult (8-10 wks old) C57BL/6 mice that have been characterized previously (Ray and Gage, 2006). The P19CL6 cells is a sub-line of P19EC cells, originally generated by the late Dr. Habara-Ohkubo (Habara-Ohkubo, 1996), were grown in MEM-α (Invitrogen) containing 10% fetal bovine serum (Omega). HCN cells or MWB neural progenitors were trypsinized and plated into N2 medium (Invitrogen) containing FGF-2 (HCN cells) or FGF-2/EGF/heparin (MWB) overnight, and switched to fresh N2 medium without FGF-2 and Isx-9 (20 μM for HCN cells and 5 μM for MWB) was added for 4 d. To test if Isx-9 could block competing astrocyte or oligodendrocyte differentiation, standard gliogenic conditions were used as described previously (Hsieh et al., 2004). […]

HDAC5 = assay: protein blotting of phospho-HDAC5, HDAC4 and phospho-CaMKII in HCN cells; type: cell-based, rat; conditions: Isx/Isx-9-treated HCNs, 1-2 d
[2] = tested on: human CD133(+) brain tumor stem cells (BTSCs); assay: growth, secondary neurospheres and BrdU uptake of BTSCs; type: cell-based
Protocol: CD133(+) brain tumor stem cells (BTSCs) from an explanted human tumor specimen were treated with EGF/FGF (FIG. 10A) or Isx-9 (20 μM) (FIG. 10B) for 7 days before returning to EGF/FGF (FIG. 10C) or EGF/FGF plus Isx-9 conditions (FIG. 10D) for an additional 2 days.
The number and size of neurospheres observed in 7-day pretreated BTSCs with DMSO (vehicle), EGF/FGF, or Isx-9 that were dissociated and re-plated to form secondary neurospheres (1000 cells/well) under various conditions is shown in FIG. 10F.

MEF2 = assay: gel shift assay of MEF2 binding to MEF2 response element of NR1 gene; type: cell-based, rat; conditions: versus vehicle-treated cells
Protocol: Protein blotting, immunoprecipitation, and gel shift assay. For protein blotting analysis, whole cell lysates were prepared from HCN cells using RIPA buffer (Tris-HCl, 50 mM, pH 7.4; NP-40, 1%; Na-deoxycholate, 0.25%; NaCl, 150 mM; EDTA, 1 mM; PMSF, 1 mM; aprotinin, leupeptin, pepstatin, 1 mg/ml; Na3VO4, 1 mM; NaF, 1 mM). For nuclear and cytoplasmic extracts, HCNs were lysed in hypotonic buffer (Hepes, 10 mM, pH 8; MgCl2, 1.5 mM; KCl, 10 mM; DTT, 1 mM). Nuclei was then isolated and resuspended in the same buffer with NaCl, 420 mM; EDTA, 0.2 mM; glycerol, 25%; NP-40, 1%; PMSF, 1 mM; aprotinin, leupeptin, pepstatin, 1 mg/ml. Protein concentration in centrifugation-clarified cell lysates were measured by the BCA Protein Assay Kit (Pierce) and equal amounts of protein were separated on a 4-12% SDS-PAGE and transferred to Hybond PVDF (Amersham Biosciences). Protein blots were done using the NuPage gel and transfer system with 4-20% Tris-Bis gels (Invitrogen). […]

gluR2-luc = assay: gluR2-luciferase reporter gene assay in HCN cells; type: cell-based, rat
HCN cells = assay: in vitro neuronal differentiation of HCN cells (morphology, Tuj1 staining); type: cell-based, rat
neuroD-luciferase = neuroD-luciferase reporter gene assay in HCN cells; type: cell-based, rat; conditions: HCN cells

For `O=C(NC1CC1)c1cc(-c2cccs2)on1` [Isx-9, N-cyclopropyl-5-(thiophen-2-yl)isoxazole-3-carboxamide], the “neuronal differentiation of MWB neural progenitors” value [1] was “promotes neuronal differentiation”, the “HDAC5 phosphorylation / cytoplasmic phospho-HDAC5” value (HDAC5) was “Increased HDAC5 phosphorylation over time; also recorded: Accumulation of phospho-HDAC5 in the cytoplasm; also recorded: cytoplasmic enrichment of phospho-HDAC5” and the “cell attachment and differentiation of BTSCs after growth factor challenge” value ([2]; 7-day exposure, 20 μM) was “promotes an irreversible state of cell attachment and differentiation”. The “number and size of secondary neurospheres” value ([2]; 7-day pre-treatment, compared to EGF/FGF pre-treatment) was “mediates a decrease in the average number and size of each secondary neurosphere”, the “DNA synthesis/proliferation (BrdU uptake) of BTSCs” value ([2]; 7 days pre-treatment, EGF/FGF added back for 24 hours) was “leads to decreased DNA synthesis/proliferation” and the “total MEF2 binding to MEF2 response element within the NR1 gene” value (MEF2) was “similar”. The “increase in gluR2 luciferase reporter” value (gluR2-luc) was ≥ 8 fold, the “neuronal differentiation of HCN cells/NPCs” value (HCN cells; 20 μM, 4 d cultures) was “promotes robust neuronal differentiation” and the “Tuj1+ differentiation” value (HCN cells; HCN cells, by 4 d) was > 50%. The “increase in neuroD luciferase reporter” value (neuroD-luciferase) was ≥ 8 fold.

From patent publication US8193225B2, “Isoxazole amides, derivatives and methods of chemical induction of neurogenesis” (priority 2006, dated 2012)
